Measured values from US20260022142A1, “MACROCYCLIC IMMUNOMODULATORS” (Bristol-Myers Squibb Company, priority 2022, published 2026).
Numbered stars: 1 amine (or outer) side, 2 acyl side, 3 side chain; on linkers, the order of the positions; unused ones are H or OH. Bridge positions count the residues as written; N and C are the ends. Square brackets hold non-standard residues; d marks the D form. Peptide text beside a SMILES is read from it. * marks the point of attachment. Phe(3,4-(OMe)2) = COc1ccc(C[C@H](N)C(=O)O)cc1OC; Phe(3-CF3) = N[C@@H](Cc1cccc(C(F)(F)F)c1)C(=O)O; Ala(morpholin-4-yl) = N[C@@H](CN1CCOCC1)C(=O)O; Phe(4-COOH) = N[C@@H](Cc1ccc(C(=O)O)cc1)C(=O)O; Bip = N[C@@H](Cc1ccc(-c2ccccc2)cc1)C(=O)O; Phe(3-CN) = N#Cc1cccc(C[C@H](N)C(=O)O)c1; Phe(3-OMe) = COc1cccc(C[C@H](N)C(=O)O)c1; Phe(3-Me) = Cc1cccc(C[C@H](N)C(=O)O)c1; γGlu = O=C(O)[C@H](CCC(=O)[*:2])N[*:1]; NH(CH2)12COOH = O=C(O)CCCCCCCCCCCCN*; Val(3-OH) = CC(C)(O)[C@H](N)C(=O)O; Aha = [N-]=[N+]=NCC[C@H](N)C(=O)O; 4Pal = N[C@@H](Cc1ccncc1)C(=O)O; Cha = N[C@@H](CC1CCCCC1)C(=O)O; Cit = NC(=O)NCCC[C@H](N)C(=O)O; 3Abz = Nc1cccc(C(=O)O)c1; Carboxymethyl = O=C(O)C*; Orn = NCCC[C@H](N)C(=O)O; Pra = C#CC[C@H](N)C(=O)O; Aun = NCCCCCCCCCCC(=O)O; Dab = NCC[C@H](N)C(=O)O; Dap = NC[C@H](N)C(=O)O; AEEA = NCCOCCOCC(=O)O

Target: T1, PD-1/PD-L1 interaction (PE-labeled human PD-L1-Ig binding to Jurkat cell line over-expressing human PD-1) (Homo sapiens, UniProt Q15116)
T1 construct: expressed in transfected cells; host or cells: Jurkat
T1 sequence (Q15116 25-288): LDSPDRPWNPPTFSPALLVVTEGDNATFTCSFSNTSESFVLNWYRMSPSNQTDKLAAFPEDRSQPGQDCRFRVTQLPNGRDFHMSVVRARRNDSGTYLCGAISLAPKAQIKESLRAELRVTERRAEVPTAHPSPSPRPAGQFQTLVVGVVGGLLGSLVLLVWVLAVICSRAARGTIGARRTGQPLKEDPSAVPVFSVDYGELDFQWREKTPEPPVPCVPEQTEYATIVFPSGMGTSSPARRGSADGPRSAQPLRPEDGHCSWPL
Assay: Jurkat-PD-1 Cell Binding High-Content Screening Assay (CBA)
Type: cell-based
Conditions: Jurkat cell line over-expressing human PD-1; PE-labeled PD-L1-Ig 20 nM final; read-out: Jurkat hPD1-PDL1 IC50
Procedure, shortened: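 Jurkat cells stably over-expressing human PD-1 were seeded in DMEM with 10% fetal calf serum and pre-incubated with compound for 2 h at 37° C. PE-labeled human PD-L1-Ig was then added at 20 nM final for 1 hour, after which cells were fixed with paraformaldehyde, Hoechst-stained and imaged by high-content microscopy.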

IC50 [nM]	SMILES
4.7	Cc1cccc(C[C@@H]2NC(=O)[C@H](CC(=O)O)NC(=O)[C@H](Cc3ccc(OCC(=O)O)cc3)NC(=O)[C@H](CN3CCOCC3)NC(=O)CSC[C@@H](C(=O)N[C@@H](CCN)C(=O)N[C@@H](CCN=[N+]=[N-])C(=O)NCCCCCCCCCCC(=O)O)NC(=O)[C@H](CO)NC(=O)[C@H](C(C)(C)O)NC(=O)[C@H](CC3CCCCC3)NC(=O)[C@H](CCN)NC(=O)[C@@H](CC(C)C)NC(=O)[C@H](CCCN)NC(=O)[C@H](Cc3ccc(OCC(=O)O)cc3)NC(=O)[C@H](Cc3ccc(-c4ccccc4)cc3)NC(=O)[C@H](Cc3ccc(OCC(=O)O)cc3)NC2=O)c1 [Compound 1281] ({CH2CO}-[Ala(morpholin-4-yl)]Y(Carboxymethyl)D[Phe(3-Me)]Y(Carboxymethyl)[Bip]Y(Carboxymethyl)[Orn][dL][Dab][Cha][Val(3-OH)]SC[Dab][Aha][Aun]-OH; thioether N-14)
631	CC(C)C[C@@H]1NC(=O)[C@H](Cc2c[nH]c3ccccc23)NC(=O)[C@H](CC(=O)O)NC(=O)[C@H](Cc2ccncc2)NC(=O)[C@H](Cc2ccc(OCC(=O)O)cc2)NC(=O)CSC[C@@H](C(=O)Nc2cccc(C(=O)NCCCCCCCCCCC(=O)O)c2)NC(=O)[C@H](CN)NC(=O)[C@H](C(C)C)NC(=O)[C@H](CC2CCCCC2)NC(=O)[C@H](CCN)NC(=O)[C@@H](CC(C)C)NC(=O)[C@H](CCCN)NC(=O)[C@H](C(C)C)NC(=O)[C@H](Cc2ccc(-c3ccccc3)cc2)NC1=O [Compound 1282] ({CH2CO}-Y(Carboxymethyl)[4Pal]DWL[Bip]V[Orn][dL][Dab][Cha]V[Dap]C[3Abz][Aun]-OH; thioether N-14)
731	COc1ccc(C[C@@H]2NC(=O)[C@H](CC(=O)O)NC(=O)[C@H](Cc3ccc(OCC(=O)O)cc3)NC(=O)[C@H](CN)NC(=O)CSC[C@@H](C(=O)N[C@@H](CCN)C(=O)NCCOCCOCC(=O)NCCCCCCCCCCC(=O)O)NC(=O)[C@H](CCCN)NC(=O)[C@H](C(C)C)NC(=O)[C@H](CC3CCCCC3)NC(=O)[C@H](CCN)NC(=O)[C@@H](CC(C)C)NC(=O)[C@H](CCCN)NC(=O)[C@H](Cc3ccc(O)cc3)NC(=O)[C@H](Cc3ccc(-c4ccccc4)cc3)NC(=O)[C@H](C(C)C)NC2=O)cc1OC [Compound 1283] ({CH2CO}-[Dap]Y(Carboxymethyl)D[Phe(3,4-(OMe)2)]V[Bip]Y[Orn][dL][Dab][Cha]V[Orn]C[Dab][AEEA][Aun]-OH; thioether N-14)
6.4	Cc1cccc(C[C@@H]2NC(=O)[C@H](CC(=O)O)NC(=O)[C@H](Cc3ccc(OCC(=O)O)cc3)NC(=O)[C@H](CCN)NC(=O)CSC[C@@H](C(=O)N[C@@H](CCN)C(=O)NCCOCCOCC(=O)N[C@@H](CC(=O)O)C(=O)NCCOCCOCC(=O)N[C@@H](CCC(=O)NCC(=O)NCCCCCCCCCCCCC(=O)O)C(=O)O)NC(=O)[C@H](Cc3cnc[nH]3)NC(=O)[C@H](C(C)(C)O)NC(=O)[C@H](CC3CCCCC3)NC(=O)[C@H](CCN)NC(=O)[C@@H](CC(C)C)NC(=O)[C@H](CCCN)NC(=O)[C@H](Cc3ccc(C(=O)O)cc3)NC(=O)[C@H](Cc3ccc(-c4ccccc4)cc3)NC(=O)[C@H](Cc3ccc(C(=O)O)cc3)NC2=O)c1 [Compound 1285] ({CH2CO}-[Dab]Y(Carboxymethyl)D[Phe(3-Me)][Phe(4-COOH)][Bip][Phe(4-COOH)][Orn][dL][Dab][Cha][Val(3-OH)]HC[Dab][AEEA]D[AEEA][γGlu]G-{NH(CH2)12COOH}; thioether N-14)
5.6	C#CC[C@H](NC(=O)[C@H](CCN)NC(=O)[C@@H]1CSCC(=O)N[C@@H](CN2CCOCC2)C(=O)N[C@@H](Cc2ccc(OCC(=O)O)cc2)C(=O)N[C@@H](CC(=O)O)C(=O)N[C@@H](Cc2cccc(C)c2)C(=O)N[C@@H](Cc2ccc(C(=O)O)cc2)C(=O)N[C@@H](Cc2ccc(-c3ccccc3)cc2)C(=O)N[C@@H](Cc2ccc(C(=O)O)cc2)C(=O)N[C@@H](CCCN)C(=O)N[C@H](CC(C)C)C(=O)N[C@@H](CCN)C(=O)N[C@@H](CC2CCCCC2)C(=O)N[C@@H](C(C)(C)O)C(=O)N[C@@H](CO)C(=O)N1)C(=O)NCCCCCCCCCCC(=O)O [Compound 1286] ({CH2CO}-[Ala(morpholin-4-yl)]Y(Carboxymethyl)D[Phe(3-Me)][Phe(4-COOH)][Bip][Phe(4-COOH)][Orn][dL][Dab][Cha][Val(3-OH)]SC[Dab][Pra][Aun]-OH; thioether N-14)
8.2	CC(C)C[C@H]1NC(=O)[C@H](CCCN)NC(=O)[C@H](Cc2ccc(O)cc2)NC(=O)[C@H](Cc2ccc(-c3ccccc3)cc2)NC(=O)[C@H](Cc2ccc(OCC(=O)O)cc2)NC(=O)[C@H](Cc2cccc(C(F)(F)F)c2)NC(=O)[C@H](CC(=O)O)NC(=O)[C@H](Cc2ccc(OCC(=O)O)cc2)NC(=O)[C@H](CN)NC(=O)CSC[C@@H](C(=O)N[C@@H](CCN)C(=O)NCCOCCOCC(=O)NCCCCCCCCCCC(=O)O)NC(=O)[C@H](CCCN)NC(=O)[C@H](C(C)C)NC(=O)[C@H](CC2CCCCC2)NC(=O)[C@H](CCN)NC1=O [Compound 1287] ({CH2CO}-[Dap]Y(Carboxymethyl)D[Phe(3-CF3)]Y(Carboxymethyl)[Bip]Y[Orn][dL][Dab][Cha]V[Orn]C[Dab][AEEA][Aun]-OH; thioether N-14)
10.3	CC(C)C[C@H]1NC(=O)[C@H](CCCN)NC(=O)[C@H](Cc2ccc(O)cc2)NC(=O)[C@H](Cc2ccc(-c3ccccc3)cc2)NC(=O)[C@H](C(C)C)NC(=O)[C@H](Cc2cccc(C(F)(F)F)c2)NC(=O)[C@H](CC(=O)O)NC(=O)[C@H](Cc2ccc(OCC(=O)O)cc2)NC(=O)[C@H](CN)NC(=O)CSC[C@@H](C(=O)N[C@@H](CCN)C(=O)NCCOCCOCC(=O)NCCCCCCCCCCC(=O)O)NC(=O)[C@H](CCCN)NC(=O)[C@H](C(C)C)NC(=O)[C@H](CC2CCCCC2)NC(=O)[C@H](CCN)NC1=O [Compound 1288] ({CH2CO}-[Dap]Y(Carboxymethyl)D[Phe(3-CF3)]V[Bip]Y[Orn][dL][Dab][Cha]V[Orn]C[Dab][AEEA][Aun]-OH; thioether N-14)
10.9	COc1cccc(C[C@@H]2NC(=O)[C@H](CC(=O)O)NC(=O)[C@H](Cc3ccc(OCC(=O)O)cc3)NC(=O)[C@H](CN)NC(=O)CSC[C@@H](C(=O)N[C@@H](CCN)C(=O)NCCOCCOCC(=O)NCCCCCCCCCCC(=O)O)NC(=O)[C@H](CCCN)NC(=O)[C@H](C(C)C)NC(=O)[C@H](CC3CCCCC3)NC(=O)[C@H](CCN)NC(=O)[C@@H](CC(C)C)NC(=O)[C@H](CCCN)NC(=O)[C@H](Cc3ccc(O)cc3)NC(=O)[C@H](Cc3ccc(-c4ccccc4)cc3)NC(=O)[C@H](C(C)C)NC2=O)c1 [Compound 1289] ({CH2CO}-[Dap]Y(Carboxymethyl)D[Phe(3-OMe)]V[Bip]Y[Orn][dL][Dab][Cha]V[Orn]C[Dab][AEEA][Aun]-OH; thioether N-14)
12.5	CC(C)C[C@H]1NC(=O)[C@H](CCCN)NC(=O)[C@H](Cc2ccc(O)cc2)NC(=O)[C@H](Cc2ccc(-c3ccccc3)cc2)NC(=O)[C@H](C(C)C)NC(=O)[C@H](Cc2c[nH]c3ccccc23)NC(=O)[C@H](CC(=O)O)NC(=O)[C@H](Cc2ccc(OCC(=O)O)cc2)NC(=O)[C@H](CN)NC(=O)CSC[C@@H](C(=O)N[C@@H](CCN)C(=O)NCCOCCOCC(=O)NCCCCCCCCCCC(=O)O)NC(=O)[C@H](CCCN)NC(=O)[C@H](C(C)C)NC(=O)[C@H](CC2CCCCC2)NC(=O)[C@H](CCN)NC1=O [Compound 1290] ({CH2CO}-[Dap]Y(Carboxymethyl)DWV[Bip]Y[Orn][dL][Dab][Cha]V[Orn]C[Dab][AEEA][Aun]-OH; thioether N-14)
14.7	CC(C)C[C@H]1NC(=O)[C@H](CCCN)NC(=O)[C@H](Cc2ccc(O)cc2)NC(=O)[C@H](Cc2ccc(-c3ccccc3)cc2)NC(=O)[C@H](C(C)C)NC(=O)[C@H](Cc2cccc(C#N)c2)NC(=O)[C@H](CC(=O)O)NC(=O)[C@H](Cc2ccc(OCC(=O)O)cc2)NC(=O)[C@H](CN)NC(=O)CSC[C@@H](C(=O)N[C@@H](CCN)C(=O)NCCOCCOCC(=O)NCCCCCCCCCCC(=O)O)NC(=O)[C@H](CCCN)NC(=O)[C@H](C(C)C)NC(=O)[C@H](CC2CCCCC2)NC(=O)[C@H](CCN)NC1=O [Compound 1291] ({CH2CO}-[Dap]Y(Carboxymethyl)D[Phe(3-CN)]V[Bip]Y[Orn][dL][Dab][Cha]V[Orn]C[Dab][AEEA][Aun]-OH; thioether N-14)
18	Cc1cccc(C[C@@H]2NC(=O)[C@H](CC(=O)O)NC(=O)[C@H](Cc3ccc(OCC(=O)O)cc3)NC(=O)[C@H](CN)NC(=O)CSC[C@@H](C(=O)NCC(=O)N[C@@H](CCC(=O)O)C(=O)NCCCCCCCCCCC(=O)O)NC(=O)[C@H]([C@@H](C)O)NC(=O)[C@H](C(C)C)NC(=O)[C@H](CC3CCCCC3)NC(=O)[C@H](CCN)NC(=O)[C@@H](CC(C)C)NC(=O)[C@H](CCCN)NC(=O)[C@H](CCCNC(N)=O)NC(=O)[C@H](Cc3ccc(-c4ccccc4)cc3)NC(=O)[C@H](C(C)C)NC2=O)c1 [Compound 1292] ({CH2CO}-[Dap]Y(Carboxymethyl)D[Phe(3-Me)]V[Bip][Cit][Orn][dL][Dab][Cha]VTCGE[Aun]-OH; thioether N-14)
19.1	Cc1cccc(C[C@@H]2NC(=O)[C@H](CC(=O)O)NC(=O)[C@H](Cc3ccc(OCC(=O)O)cc3)NC(=O)[C@H]([C@@H](C)O)NC(=O)CSC[C@@H](C(=O)N[C@@H](CCCCN)C(=O)NCCCCCCCCCCC(=O)O)NC(=O)[C@H]([C@@H](C)O)NC(=O)[C@H](C(C)C)NC(=O)[C@H](CC3CCCCC3)NC(=O)[C@H](CCN)NC(=O)[C@@H](CC(C)C)NC(=O)[C@H](CCCN)NC(=O)[C@H](Cc3ccc(OCC(=O)O)cc3)NC(=O)[C@H](Cc3ccc(-c4ccccc4)cc3)NC(=O)[C@H](Cc3ccc(OCC(=O)O)cc3)NC2=O)c1 [Compound 1293] ({CH2CO}-TY(Carboxymethyl)D[Phe(3-Me)]Y(Carboxymethyl)[Bip]Y(Carboxymethyl)[Orn][dL][Dab][Cha]VTCK[Aun]-OH; thioether N-14)
